Assay results taken from patent publication US12448352B2, “Beta adrenergic agonist and methods of using the same” (Curasen Therapeutics, Inc., priority 2019, dated 2025).

Key:
MDCK-MDR1 cells = assay: MDCK-MDR1 permeability assay; type: in vitro ADME; parameters: A-B (Papp apical to basolateral) / B-A (Papp basolateral to apical): unit not given here
Protocol: Preparation of MDCK-MDR1 Cells. Cell culture medium of was added to each well of the Transwell insert (50 μL) and reservoir (25 mL). The HTS transwell plates were then incubated at 37° C., 5% CO2 for 1 hour before cell seeding. MDCK-MDR1 cells were diluted to 1.56×10^6 cells/mL with culture medium and 50 μL of cell suspension were dispensed into the filter well of the 96-well HTS Transwell plate. Cells were cultivated for 4-8 days in a cell culture incubator at 37° C., 5% CO2, 95% relative humidity. Cell culture medium was replaced every other day, beginning no later than 24 hours after initial plating.
Preparation of Stock Solutions. 10 mM stock solutions of test compounds were prepared in DMSO. The stock solutions of positive controls were prepared in DMSO at the concentration of 10 mM. Metoprolol, prazosin and imatinib were used as control compounds in this assay.
Assessment of Cell Monolayer Integrity. Medium was removed from the reservoir and each Transwell insert and replaced with prewarmed fresh culture medium. Transepithelial electrical resistance (TEER) across the monolayer was measured using Millicell Epithelial Volt-Ohm measuring system (Millipore, USA). The Plate was returned to the incubator once the measurement was done. TEER value should be greater than 42 ohm·cm2, which indicates the well-qualified MDCK-MDR1 monolayer. The TEER value was calculated according to the following equation: TEER measurement (ohms)×Area of membrane (cm^2)=TEER value (ohm·cm^2)
Assay Procedures. The MDCK-MDR1 plate was removed from the incubator and washed twice with pre-warmed HBSS (10 mM HEPES, pH 7.4), and then incubated at 37° C. for 30 minutes. The stock solutions of test compounds and controls were diluted in DMSO to get 1 mM solutions and then diluted with HBSS (10 mM HEPES, pH 7.4) to get 5 μM working solutions. The final concentration of DMSO in the incubation system was 0.5%. […]

[1] = Plasma protein binding, equilibrium dialysis (rat); type: in vitro ADME; details: 1 μM, 6 hours dialysis
Protocol: Preparation of 100 mM sodium phosphate and 150 mM NaCl buffer (PBS). A basic solution was prepared by dissolving 14.2 g/L Na2HPO4 and 8.77 g/L NaCl in deionized water and the solution could be stored at 4° C. for up to 7 days. An acidic solution was prepared by dissolving 12.0 g/L NaH2PO4 and 8.77 g/L NaCl in deionized water and the solution could be stored at 4° C. for up to 7 days. The basic solution was titrated with the acidic solution to pH 7.4 and store at 4° C. for up to 7 days. pH was checked on the day of experiment and was adjusted if outside specification of 7.4±0.1.
Thawing of the frozen plasma (stored at −80° C.). Frozen plasma was thawed immediately at room temperature. The plasma was centrifuged at 3,220 g for 10 minutes to remove clots and supernatant was collected into a fresh tube. The pH of the plasma was checked and recorded. Note: a). Only use plasma that has been thawed no more than twice since arrival. b). Only use plasma within the range of pH 7 to pH 8.
Preparation of working solutions. The working solutions of test compound and control compound ketoconazole were prepared in DMSO at the concentration of 200 μM. And then 3 μL of working solutions was removed to mix with 597 μL of rat plasma to achieve a final concentration of 1 μM (0.5% DMSO). Plasma samples were vortexed thoroughly.
Preparation of dialysis membranes. […]

Cc1ncccc1[C@@H](O)CNC(C)(C)C [Compound 03-115]
A-B (Papp apical to basolateral) (MDCK-MDR1 cells; MDCK-MDR1, 5 μM, 2 hours): 6.96
B-A (Papp basolateral to apical) (MDCK-MDR1 cells; MDCK-MDR1, 5 μM, 2 hours): 10.98
Efflux Ratio (MDCK-MDR1 cells; MDCK-MDR1, Papp (B-A)/Papp (A-B)): 1.58
PPB (rat), Percent of Unbound Fractions [1]: 97%
